Results: ChEMBL document CHEMBL1221216, “Chemical probes for histone-modifying enzymes” (Nat Chem Biol, 2008)

Key:
[1] = molecular target: T1, NAD-dependent protein deacetylase sirtuin-2 (Homo sapiens, UniProt Q8IXJ6); assay: Activation of human SirT2 protein fluorescence polarization assay
T1 sequence (Q8IXJ6 whole entry): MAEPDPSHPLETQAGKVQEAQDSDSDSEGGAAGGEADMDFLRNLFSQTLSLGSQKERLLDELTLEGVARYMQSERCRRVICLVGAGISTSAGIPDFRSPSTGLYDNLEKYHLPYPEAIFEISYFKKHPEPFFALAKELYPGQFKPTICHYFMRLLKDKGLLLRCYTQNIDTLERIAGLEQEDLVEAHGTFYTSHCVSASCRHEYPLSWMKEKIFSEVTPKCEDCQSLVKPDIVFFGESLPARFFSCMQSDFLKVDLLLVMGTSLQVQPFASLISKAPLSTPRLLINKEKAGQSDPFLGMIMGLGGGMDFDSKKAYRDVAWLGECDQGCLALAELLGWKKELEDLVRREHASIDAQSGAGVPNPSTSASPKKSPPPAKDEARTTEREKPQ

[2] = Inhibition of histone methyltransferase SU(VAR)3-9

SMILES | EC50 [1] [nM] | IC50 [2] [nM]
O=C(Nc1ccccc1-c1cn2c(CN3CCNCC3)csc2n1)c1cnc2ccccc2n1 | 160 | –
CN1C(=O)[C@@]23C[C@]4([C@]56C[C@@]78SS[C@@](CO)(C(=O)N7[C@H]5Nc5ccccc56)N(C)C8=O)c5ccccc5N[C@@H]4N2C(=O)[C@]1(CO)SS3 [CHAETOCIN] | – | 600
